Assay results published in patent US6355619B1, “Peptide tumor cell growth inhibitors” (Board of Regents, The University of Texas System, priority 1996, dated 2002).
Read-outs that look alike come from different tables or passages of the source.

Experiments:
RPMI-7951 melanoma cells = test: Cell growth assay, RPMI-7951; format: cell-based
Method: FIG. 15B. The effect of Antileukinate on the growth of melanoma cells. Melanoma cell lines and a control liver cancer cell line (2×10^4 cells/well) in […] were cultured in a 24 well tissue culture plate in the presence of various concentrations of Antileukinate for 3 d. The culture media were changed to fresh media containing the same concentration of Antileukinate every 24 hr during the incubation period. After incubation, the cells were collected and the cell number was counted using a hemocytometer. RPMI-7951 cell line. Analysis of variance was used for multiple comparison.
The cell lines (2×10^4 cells/well) in 500 μl cell culture medium were grown in 24 well tissue culture plates. After the cells adhered to the plate, the supernatants were aspirated and 500 μl of media containing various concentrations of Antileukinate were added to the wells. The cells were cultured for period indicated in the text. The culture media were changed to fresh media every 24 hr. After incubation, the cells were detached with trypsin-EDTA solution (Life Technologies Inc., Gaithersburg, Md., containing 0.05% of trypsin and 0.53 mM of EDTA in Hanks Balanced Salt Solution without Ca^2+ and Mg^2+) and the cell number was counted using a hemocytometer.

[1] = tested on: MGSA/GROα receptors on RPMI-7951 melanoma cells; test: Binding of 125I-MGSA/GROα to RPMI-7951 melanoma cells; details: RPMI-7951, 1 nM 125I-labeled MGSA/GROα; read-out: EC50, inhibition of MGSA/GROα binding
Method: (§1) FIG. 11A. The binding of ^125I-labeled MGSA/GROα to melanoma cell lines, Hs 294T and RPMI-7951. The melanoma cells, 1×10^5, were incubated with 1 nM ^125I-MGSA/GROα in the presence of various concentrations of unlabeled MGSA/GROα. Binding inhibition curve with Hs 294T (closed circles) and RPMI-7951 (open circles). The lines shown in the graph are the best fit curves calculated using the London II computer program.
(§2) FIG. 13. The effect of Antileukinate on the binding of radiolabeled MGSA/GROα to the melanoma cell lines. The melanoma cells, Hs 294T (closed circles) and RPMI-7951 (open circles), were incubated with 1 nM ^125I-MGSA/GROα in the presence of different concentrations of Antileukinate. The lines shown in the graph are the best fit curves calculated using the London II computer program.
(§3) Recombinant human MGSA/GROα and IL-8 were purchased form Pepro Tech Inc. (Rocky Hill, N.J.) and radioactively labeled using ^125I-labeled Bolton-Hunter reagent (DuPont-NEN, Wilmington, Del.) (Bolton and Hunter, 1973). The labeled proteins were isolated using Sephadex G-25 column (Column PD-10, Pharmacia) pre-equilibrated with PBS containing 0.1% gelatin and stored at −70° C. after the addition of 1% bovine serum albumin.
(§4) Binding studies with melanoma cell lines were performed by the method of Horuk and colleagues (Horuk et al., 1993). Briefly, the cells (1×10^5 cells/well) in 24-well plates were washed two times with Hank's Balanced Salt Solution and incubated with ^125I-labeled MGSA/GROα or IL-8 in the buffer containing 1% bovine serum albumin at 4° C. for 3 hr. The incubation was terminated by vacuum aspiration of the supernatant. The cells were washed three times in binding buffer, solubilized by the addition of 200 μl of 1% SDS, and transferred to vials for counting. The non-specific binding was estimated by measuring the binding in the presence of 100-fold excess of non-labeled ligand. The binding parameters were calculated using the Lundon II computer program (Lundon Software Inc., Chagrin Falls, Ohio).

Hep G2 = details: 16 hr
Method: The cell lines (4×10^5 cells/well) in RPMI-1640 medium containing 10% fetal bovine serum were incubated with 10 μCi of Na2^51CrO4 (DuPont NEN Co.) for 60 min at 37° C. in a 24 well tissue culture plate. The cells were washed 3 times and then incubated in cell culture medium for 30 min at 37° C. to allow spontaneous lysis of marginally viable cells. […] The cells were cultured for 16 hr at 37° C. and then the radioactivity in the supernatants was counted in a gamma radiation spectrometer. Quadriplicate wells received cell culture medium alone or 2% SDS to determine spontaneous and maximum release, respectively. The percentage lysis was calculated by using the following formula: [formula]

[2] = tested on: adenocarcinoma from stomach AGS; test: Tumor cell growth, AGS; format: cell-based
[3] = tested on: MGSA/GROα receptors on Hs 294T melanoma cells; test: Binding of 125I-MGSA/GROα to Hs 294T melanoma cells; set-up: species or system human; details: 1 nM 125I-labeled MGSA/GROα, read-out: EC50, inhibition of MGSA/GROα binding
Method: as §1, §2, §3, §4

[4] = tested on: fMLP-stimulated neutrophil enzyme release; test: β-glucuronidase release from neutrophils stimulated by fMLP; format: cell-based, human; details: 100 nM fMLP
Method: FIG. 8. The Effect of Ac-RRWWCR-NH2 (SEQ ID NO:1) on β-glucuronidase Release. Neutrophils pretreated with cytochalasin B were incubated with 100 nM IL-8 (●), 100 nM fMLP (▪), 100 nM C5a (_) or 100 nM leukotriene B4 ? or without any stimulant (◯) in the presence of increasing concentration of Ac-RRWWCR-NH2 (SEQ ID NO:1) for 30 min at 37° C. β-glucuronidase activity of supernatants were measured using phenolphthalein-glucuronic acid as substrate. Analysis of variance was used for multiple comparison.
Neutrophil enzyme release was studied by a modification of the method of Goldstein and colleagues (Goldstein et al., 1973). Cytochalasin B (Sigma Chemical Co.) was stored in dimethyl sulfoxide at a concentration of 5 mg/ml and was diluted to a concentration of 50 μg/ml in Hank's Balanced Salt Solution (HBSS) immediately before use. Cytochalasin B, 200 μl, was added to 1 ml of suspension of neutrophils, 6.25×10^6 cells/ml in HBSS, to achieve a final cytochalasin B concentration of […]. The solution was then incubated in 96 well plates at room temperature for 10 min. The stimulant, 100 μl, was added, and this cell suspension was incubated for 30 min at 37° C. The plates were centrifuged and 100 μl of supernatant was removed. […] After 16 hr incubation at 37° C., 200 μl of 0.2 M Glycine in 0.2 M NaCl, pH10.4 was added to each well and OD540 was measured as the enzyme activity.

## RRWWCR [Ac-RRWWCR-NH2]
RPMI-7951 melanoma cells; RPMI-7951, 100 μM
  cell growth at 100 μM peptide: suppressed the cell growth almost completely
RPMI-7951 melanoma cells; RPMI-7951, 72 hr, medium changed every 24 hr, read-out: ED50, cell growth inhibition
  EC50: 31 µM
[1]
  EC50: ~1 µM
Hep G2; Hep G2, 1 μM peptide
  % cell lysis: −2.1 ± 7.5%
Hep G2; Hep G2, 5 μM peptide
  % cell lysis: −0.8 ± 8.3%
Hep G2; Hep G2, 20 μM peptide
  % cell lysis: 5.8 ± 8.3%
Hep G2; Hep G2, 100 μM peptide
  % cell lysis: 0.9 ± 2.9%
[2]
  effect on cell growth: inhibits growth
[3]
  EC50: ~1 µM
[4]
  effect on enzyme release stimulated by fMLP: did not affect the enzyme release
